For 33 compounds, melting point and EC50 results are on record in patent US20100168136A1, “ALKYLSULFONE DERIVATIVES” (DAIICHI SANKYO COMPANY, LIMITED, priority 2007, published 2010).

Series [1] has as its system production of β-amyloid protein (Aβ) by E35 cells (human glioma H4 cells transfected with APP751 gene). The series is described as follows: Screening system using cells: inhibition of production/secretion of β-amyloid protein (Aβ sandwich ELISA of culture supernatant). The series is classed as cell-based. As to conditions: 24 hours with compound, Aβ in supernatant by ELISA, read-out: Activity (EC50, concentration at which production of Aβ is inhibited by 50%). The protocol:
Inhibitory activity of compounds against production of β-amyloid protein was measured by quantitative determination of the amount of β-amyloid protein (Aβ) secreted into the culture medium by sandwich enzyme-linked immunosorbent assay (ELISA) method, using E35 cells prepared by transfecting APP751 gene, which is a human wild type β-amyloid protein precursor protein gene, into human glioma cells (H4 cells).
That is, E35 cells were inoculated into a 96-well plate followed by cultivation in an incubator equilibrated with 5% carbon dioxide at 37° C., using Dulbecco's Modified Eagle's Medium supplemented with inactivated 10% fetal bovine serum as the medium. Test compounds dissolved in DMSO solution were added 24 hours after inoculation. Test compounds in DMSO solution were prepared to have a 2000-fold concentration of the final concentration, so that the DMSO concentration in the medium becomes 0.05%. After further cultivation for 24 hours, supernatant was collected, and was added to a 96-well plate for ELISA fixed with monoclonal antibody 25-1 against Aβ. Incubation was carried out at 4° C. for 16-20 hours. The plate was washed with phosphate buffer (pH 7.4), followed by addition of biotinylated monoclonal antibody MA32-40 against Aβ, and the plate was allowed to stand at 4° C. for 2 hours. After the plate was washed with phosphate buffer again, streptavidin conjugated alkaline phosphatase was added. Biotin was allowed to conjugate with streptavidin, and then the plate was washed with phosphate buffer. Blue Phos (KPL Inc.) was added to the plate, and then after incubation for an appropriate period of time, absorbance was measured for each of the wells. The amount of Aβ contained in the supernatant of conditioned medium was obtained from a calibration curve which was prepared separately. The concentration at which production of Aβ is inhibited by 50% (EC50), when compared with the control cells without the addition of the compound, was calculated. Here, 25-1 antibody and MA32-40 antibody used in ELISA are mouse monoclonal antibodies derived from hybridoma cell clone cell lines, which specifically recognize each antigen which was prepared and selected in accordance with a standard method by using Aβ25-35 and Aβ1-8 as antigens, respectively.
Results for the evaluation made by the aforementioned assay with respect to compound (I) of the present invention are shown in Table 1. Notation of ++++ is provided when EC50 is 5 nM or lower, +++ when 5-50 nM, and ++ when 50-500 nM.
A general note: ELISA stands for enzyme-linked immunosorbent assay.

In general, melting point refers to the temperature of the solid-liquid transition. Consider `Cc1cc(C(=O)NCO)ncc1C(c1c(F)ccc(F)c1F)S(=O)(=O)CCC(C)(F)F` (stereo not drawn), for which the melting point was 161 to 161.5 °C.
On the same count and under the same terms, then `CCCS(=O)(=O)C(c1cnc(C(N)=O)cc1C)c1c(F)ccc(F)c1F` (stereo not drawn), with 202 to 204 °C.
In the case of `Cc1cc(C(N)=O)ncc1C(c1c(F)ccc(F)c1F)S(=O)(=O)CCC(C)(C)C` (stereo not drawn), the melting point fell in the range of 143 to 144 °C.
On the same count and under the same terms, in the case of `Cc1cc(C(N)=O)ncc1C(c1c(F)ccc(F)c1F)S(=O)(=O)CC1CC1` (stereo not drawn) it was 222 to 223 °C; in that of `Cc1cc(C(N)=O)ncc1C(c1c(F)ccc(F)c1F)S(=O)(=O)CC(C)C` (stereo not drawn), 240 to 241 °C.
The compound `Cc1cc(C(N)=O)ncc1C(c1c(F)ccc(F)c1F)S(=O)(=O)CC1CCC1` (stereo not drawn) registered a melting point of 214 to 215 °C.
Same read-out and setting: then `Cc1cc(C(=O)NCO)ncc1C(c1c(F)ccc(F)c1F)S(=O)(=O)CCC(F)(F)C(F)(F)F` (stereo not drawn), with 126 to 128 °C; and `Cc1cc(C(N)=O)ncc1C(SCCC=C(F)F)c1c(F)ccc(F)c1F` (stereo not drawn), with 97 to 98 °C; and `Cc1cc(C(N)=O)ncc1C(c1c(F)ccc(F)c1F)S(=O)(=O)CCC(F)=C(F)F` (stereo not drawn), with 170 to 172 °C.
Still for that read-out and setting: in the case of `Cc1cc(C(N)=O)ncc1C(c1c(F)ccc(F)c1F)S(=O)(=O)CC(F)(F)C(F)F` (stereo not drawn) it was 160 to 161 °C; in that of `Cc1cc(C(N)=O)ncc1C(c1c(F)ccc(F)c1F)S(=O)(=O)CC(C(F)(F)F)C(F)(F)F` (stereo not drawn), 194 to 196 °C.
`Cc1cc(C(N)=O)ncc1C(c1c(F)ccc(F)c1F)S(=O)(=O)CCC(F)F` (stereo not drawn) yielded a melting point of 191.5 to 192 °C.
On the same count and under the same terms, then `Cc1cc(C(N)=O)ncc1C(c1c(F)ccc(F)c1F)S(=O)(=O)CC1CC(F)(F)C1` (stereo not drawn), with 205 to 207 °C; and `Cc1cc(C(=O)O)ncc1C(c1c(F)ccc(F)c1F)S(=O)(=O)CCC(F)(F)F` (stereo not drawn), with 85 to 87 °C.
As for `Cc1cc(C(=O)N(C)C)ncc1C(c1c(F)ccc(F)c1F)S(=O)(=O)CCC(F)(F)F` (stereo not drawn), the melting point was 203 to 204 °C.
`Cc1cc(C(=O)NCCO)ncc1C(c1c(F)ccc(F)c1F)S(=O)(=O)CCC(F)(F)F` (stereo not drawn) came in with a melting point of 146 to 147 °C.
`Cc1cc(C(N)=O)ncc1C(c1c(F)ccc(F)c1F)S(=O)(=O)CCCC(F)(F)F` (stereo not drawn) came in with a melting point of 201 to 203 °C.
Consider `Cc1cc(C(N)=O)ncc1C(c1c(F)ccc(F)c1F)S(=O)(=O)CCCF` (stereo not drawn), for which the melting point lay in the range of 194 to 196 °C.
The compound `Cc1cc(C(N)=O)ncc1C(c1c(F)ccc(F)c1F)S(=O)(=O)CCC(F)(F)F` (stereo not drawn) [Example 3, 4-Methyl-5-[(2,3,6-trifluorophenyl)[(3,3,3-trifluoropropyl)sulfonyl]methyl]pyridine-2-carboxamide] registered a melting point of 190 to 191 °C. Moreover, the EC50 in series [1] fell in the range of 50 to 500 nM.
The compound `Cc1cc(C(=O)NCO)ncc1C(c1c(F)ccc(F)c1F)S(=O)(=O)CCC(F)(F)F` (stereo not drawn) [Example 4, N-(Hydroxymethyl)-4-methyl-5-[(2,3,6-trifluorophenyl)[(3,3,3-trifluoropropyl)sulfonyl]methyl]pyridine-2-carboxamide] displayed a melting point of 146 to 148 °C. In addition, the EC50 in series [1] was in the range of 5 to 50 nM.
The like results for `Cc1cc(C(N)=O)ncc1C(c1c(F)ccc(F)c1F)S(=O)(=O)CCC(C)(F)F` (stereo not drawn) [Example 10, 5-[[(3,3-Difluorobutyl)sulfonyl](2,3,6-trifluorophenyl)methyl]-4-methylpyridine-2-carboxamide] were, in that order, 165 to 166 °C and 50 to 500 nM.
Taken in the same sequence, the figures for `CCCCS(=O)(=O)C(c1cnc(C(N)=O)cc1C)c1c(F)ccc(F)c1F` (stereo not drawn) [Example 15, 5-[(Butylsulfonyl)(2,3,6-trifluorophyenyl)methyl]-4-methylpyridine-2-carboxamide] were 203 to 204 °C and 50 to 500 nM.
The like results for `Cc1cc(C(N)=O)ncc1C(c1c(F)ccc(F)c1F)S(=O)(=O)CCC(Cl)(Cl)Cl` (stereo not drawn) [Example 18, 4-Methyl-5-[[(3,3,3-trichloropropyl)sulfonyl](2,3,6-trifluorophenyl)methyl]pyridine-2-carboxamide] were, in that order, 173 to 175 °C and 50 to 500 nM.
`Cc1cc(C(N)=O)ncc1C(c1c(F)ccc(F)c1F)S(=O)(=O)CCC(F)(F)C(F)(F)F` (stereo not drawn) [Example 19, 4-Methyl-5-[[(3,3,4,4,4-pentafluorobutyl)sulfonyl](2,3,6-trifluorophenyl)methyl]pyridine-2-carboxamide] showed a melting point of 155 to 156 °C. The EC50 in series [1] was 5 to 50 nM.
Taken in the same sequence, the figures for `Cc1cc(C(N)=O)ncc1C(c1c(F)ccc(F)c1F)S(=O)(=O)CCCCl` (stereo not drawn) [Example 30, 5-[[(3-Chloropropyl)sulfonyl](2,3,6-trifluorophenyl)methyl]-4-methylpyridine-2-carboxamide] were 197 to 199 °C and 50 to 500 nM.
For the compound `Cc1cc(C(N)=O)ncc1C(c1c(F)ccc(F)c1F)S(=O)(=O)CCC(F)(F)Cl` (stereo not drawn) [Example 34, 5-[[(3-Chloro-3,3-difluoropropyl)sulfonyl](2,3,6-trifluorophenyl)methyl]-4-methylpyridine-2-carboxamide], the melting point fell in the range of 181 to 183 °C. For the same compound, in series [1], the EC50 was 5 to 50 nM.
The like results for `Cc1cc(C(=O)NCO)ncc1C(c1c(F)ccc(F)c1F)S(=O)(=O)CCC(F)(F)Cl` (stereo not drawn) [Example 35, 5-[[(3-Chloro-3,3-difluoropropyl)sulfonyl](2,3,6-trifluorophenyl)methyl]-N-(hydroxymethyl)-4-methylpyridine-2-carboxamide] were, in that order, 150 to 152 °C and 5 to 50 nM.
`Cc1cc(C(N)=O)ncc1C(c1c(F)ccc(F)c1F)S(=O)(=O)CC=C(F)F` (stereo not drawn) [Example 37, 5-[[(3,3-Difluoroprop-2-en-1-yl)sulfonyl](2,3,6-trifluorophenyl)methyl]-4-methylpyridine-2-carboxamide] registered a melting point of 171 to 172 °C. Further, the EC50 in series [1] was 50 to 500 nM.
Consider `NC(=O)c1cc(C(c2c(F)ccc(F)c2F)S(=O)(=O)CCC(F)(F)F)c(Cl)cn1` (stereo not drawn) [Example 45, 5-Chloro-4-[(2,3,6-trifluorophenyl)[(3,3,3-trifluoropropyl)sulfonyl]methyl]pyridine-2-carboxamide], for which the melting point is 237 to 239 °C. Further, the EC50 in series [1] was 50 to 500 nM.
The like results for `Nc1cc(C(c2c(F)ccc(F)c2F)S(=O)(=O)CCC(F)(F)F)c(Cl)cn1` (stereo not drawn) [Example 48, 5-Chloro-4-[(2,3,6-trifluorophenyl)[(3,3,3-trifluoropropyl)sulfonyl]methyl]pyridin-2-amine] were, in that order, 155 to 159 °C and 5 to 50 nM.
In the case of `O=c1cc(O)nc2cc(C(c3c(F)ccc(F)c3F)S(=O)(=O)CCC(F)(F)F)c(Cl)cn12` (stereo not drawn) [Example 49, 7-Chloro-2-hydroxy-8-[(2,3,6-trifluorophenyl)[(3,3,3-trifluoropropyl)sulfonyl]methyl]-4H-pyrido[1,2-a]pyrimidin-4-one], the melting point was 264 °C (dec.). Moreover, the EC50 in series [1] was in the range of 5 to 50 nM.
Taken in the same sequence, the figures for `Nc1cc(=O)n2cc(Cl)c(C(c3c(F)ccc(F)c3F)S(=O)(=O)CCC(F)(F)F)cc2n1` (stereo not drawn) [Example 51, 2-Amino-7-chloro-8-[(2,3,6-trifluorophenyl)[(3,3,3-trifluoropropyl)sulfonyl]methyl]-4H-pyrido[1,2-a]pyrimidin-4-one] were 247 °C (dec.) and at most 5 nM.
In turn, `O=c1[nH]nc2cc(C(c3c(F)ccc(F)c3F)S(=O)(=O)CCC(F)(F)F)c(Cl)cn12` (stereo not drawn) [Example 54, 6-Chloro-7-[(2,3,6-trifluorophenyl)[(3,3,3-trifluoropropyl)sulfonyl]methyl][1,2,4]triazolo[4,3-a]pyridin-3(2H)-one] gave a melting point of 209 to 211 °C. Further, in series [1], the EC50 is 5 to 50 nM.
